# Patent publication US20030108484A1, “Individualization of therapy with antineoplastic agents” (McGill University, priority 2001, published 2003)
# Where two headings read alike, the source gives them in different places. Marks after values point to notes of the source that are not given here.
# Columns and labels:
# AAMU-Ab = test: Competitive antigen ELISA, cross-reactivity of AAMU-Ab; format: binding, rabbit; conditions: for % Cross-Reaction AAMU-Ab: competitive antigen ELISA, 0 = absence of inhibition or inhibition no higher than 40% at highest concentration tested (5×10^−3 M)
# Experimental: (§1) Buffers and water without additives are filtered through millipore filters and kept for 1 week. BSA, antibodies, Tween™ 20 and horse radish peroxidase conjugates are added to these buffers and water just prior to use. Urine samples are usually collected 4 hours after drinking a cup of coffee (instant or brewed with approximately 100 mg of caffeine per cup) and stored at −80° C. The urine samples are diluted 10 times with sodium phosphate buffer (620 mosm, pH 7.50) and are subsequently diluted with water to give concentrations of AAMU and 1X no higher than 3×10^−6 M in the ELISA. All the pipettings are done with an eight-channel pipette, except those of the antibody and sample solutions. Starting with the last well, 100 μL of a carbonate buffer (100 mM, pH 9.6) containing 2.5 μg mL^−1 antibodies are added to each well. After 90 min. at room temperature, the wells are washed three times with […] of TPB: isotonic sodium phosphate buffer (310 mosm, pH 7.50) containing 0.05% Tween™ 20.
# (§2) After the initial wash, unoccupied sites are blocked by incubation for 90 min. at room temperature with 100 μL TBP containing 3% BSA. The wells are washed four times with 100 μL TPB. […] The microplate is gently shaken with an orbital shaker at room temperature for 3-4 hours. The wells are washed three times with 100 μL TPB containing 1% BSA and three times with water containing 0.05% Tween™ 20. To the washed plate is added 150 μL of a substrate buffer composed of citric acid (25 mM) and sodium phosphate dibasic buffer (50 mM, pH 5.0) containing 0.06% hydrogen peroxide and 0.04% o-phenylenediamine hydrochloride.
# (§3) Buffers and water without additives were filtered through millipore filters and kept for 1 week. BSA, antibodies, Tween™ 20 and horse radish peroxidase conjugates were added to these buffers and water just prior to use. Urine samples were usually collected 4 hours after drinking a cup of coffee (instant or brewed with approximately 100 mg of caffeine per cup) and stored at −80° C. They were diluted 10 times with sodium phosphate buffer (620 mosm, pH 7.50) and were subsequently diluted with water to give concentrations of AAMU and 1X no higher than 3×10^−6 M in the ELISA. All the pipettings were done with an eight-channel pipette, except those of the antibody and sample solutions. Starting with the last well, 100 μL of a carbonate buffer (100 mM, pH 9.6) containing 2.5 μg mL^−1 antibodies was pipetted. After 90 min. at room temperature, the wells were washed three times with 100 μL of TPB: isotonic sodium phosphate buffer (310 mosm, pH 7.50) containing 0.05% TweenTm 20.
# (§4) After the initial wash, unoccupied sites were blocked by incubation for 90 min. at room temperature with […] TBP containing 3% BSA. The wells were washed four times with 100 μL TPB. […] The microplate was gently shaken with an orbital shaker at room temperature for 3-4 hours. The wells were washed three times with 100 μL with TPB containing 1% BSA and three times with water containing 0.05% Tween™ 20. To the washed plate was added 150 μL of a substrate buffer composed of citric acid (25 mM) and sodium phosphate dibasic buffer (50 mM, pH 5.0) containing 0.06% hydrogen peroxide and 0.04% o-phenylenediamine hydrochloride. After 20 min. at room temperature with shaking, the reaction was stopped with 50 μL of 2.5 N HCl.
# (§5) The cross reactivities of AAMU-Ab and 1X-Ab were tested using a wide variety of caffeine metabolites and structural analogs (Table 2 below).
# 1X-Ab = test: Competitive antigen ELISA, cross-reactivity of 1X-Ab; format: binding, rabbit; conditions: for % Cross-Reaction 1X-Ab: competitive antigen ELISA, 0 = absence of inhibition or inhibition no higher than 40% at highest concentration tested (5×10^−3 M)
# Experimental: as §1, §2, §3, §4, §5
# [1] = p<0.05, cited from earlier work
# [2] = test system: estrogen receptor-positive breast cancer and bone metastases; conditions: cited from earlier work
# breast cancer = conditions: first-line chemotherapy; cited from earlier work
# [3] = individuals receiving 550 mg/m^2; cited from earlier work
# [4] = cited from earlier work
Structure (SMILES),% Cross-Reaction AAMU-Ab (AAMU-Ab),% Cross-Reaction 1X-Ab (1X-Ab) [%],other results
"Cn1c(=O)[nH]c2nc[nH]c2c1=O [1-Methyl Xanthine (1X), 1-Methyl Xanthine]",0%,100,"IC50 (1X-Ab; read-out: concentration required for 50% inhibition in the competitive antigen ELISA, 1X-Ab): 10 µM"
COc1ccc2c(c1)[C@]13CCCC[C@@H]1[C@H](C2)N(C)CC3 [Dextromethorphan],,,mean performance +/-SE ([1]; extensive metabolizers (EMs)): 95+/−0.5%; mean performance +/-SE ([1]; poor metabolizers (PMs)): 86+/−6%
Cn1cnc2[nH]c(=O)[nH]c(=O)c21 [7-Methyl Xanthine],0%,0,
CC(=O)Nc1c(N)[nH]c(=O)[nH]c1=O [5-Acetamino-6-amino-uracil],0.6%,0,
Nc1nc2nc[nH]c2c(=O)[nH]1 [Guanine],0%,0,
CC/C(=C(\c1ccccc1)c1ccc(OCCN(C)C)cc1)c1ccccc1 [tamoxifen],,,"occurrence of hormone flare (increasing bone pain, erythema, hypercalcemia) ([2]; after 7-14 days of treatment, women with estrogen receptor-positive breast cancer and bone metastases): approximately 5%; individuals with hormone flare who respond to tamoxifen ([2]; individuals with hormone flare): 75%"
O=c1cc[nH]c(=O)[nH]1 [Uracil],0%,0,
Cn1c(=O)[nH]c(=O)c2[nH]cnc21 [3-Methyl Xanthine],0%,0,
"Cn1c(=O)[nH]c2[nH]c(=O)n(C)c2c1=O [1,7-Dimethyluric acid]",0%,0,
CC(=O)Nc1c(N)n(C)c(=O)[nH]c1=O [5-Acetamino-6-amino-1-methyluracil],100%,0,"IC50 (AAMU-Ab; read-out: concentration required for 50% inhibition in the competitive antigen ELISA, AAMU-Ab): 1.5 µM"
Cn1c(=O)[nH]c2[nH]c(=O)[nH]c2c1=O [1-Methyluric acid],0%,11,
O=c1[nH]c(=O)c2[nH]cnc2[nH]1 [Xanthine],0^a %,0,
"Cn1c(=O)[nH]c2ncn(C)c2c1=O [1,7-Dimethyl Xanthine (Paraxanthine), 1,7-Dimethyl Xanthine]",0%,0.5,
"Cn1c(=O)c2[nH]cnc2n(C)c1=O [1,3-Dimethyl Xanthine (Theophylline), 1,3-Dimethyl Xanthine]",0%,0.2,
CC(=O)O[C@@]12CO[C@@H]1C[C@H](O)[C@@]1(C)C(=O)[C@H](O)C3=C(C)[C@@H](OC(=O)[C@H](O)[C@@H](NC(=O)OC(C)(C)C)c4ccccc4)C[C@@](O)([C@@H](OC(=O)c4ccccc4)[C@H]21)C3(C)C [Docetaxel],,,front-line response rate in breast cancer (breast cancer): up to 73%
O=c1[nH]cnc2nc[nH]c12 [Hypoxanthine],0%,0,
"Cn1c(=O)c2c(ncn2C)n(C)c1=O [1,3,7-Trimethyl Xanthine (Caffeine), 1,3,7-Trimethyl Xanthine]",0%,0,
COc1cccc2c1C(=O)c1c(O)c3c(c(O)c1C2=O)C[C@@](O)(C(=O)CO)C[C@@H]3O[C@H]1C[C@H](N)[C@H](O)[C@H](C)O1 [doxorubicin],,,incidence of cardiomyopathy (congestive heart failure and dysrhythmias) [3]: approximately 2%; front-line response rate in breast cancer (breast cancer): 53%
"Cn1cnc2c1c(=O)[nH]c(=O)n2C [3,7-Dimethyl Xanthine (Theobromine), 3,7-Dimethyl Xanthine]",0%,0,
O=c1[nH]c(=O)c2[nH]c(=O)[nH]c2[nH]1 [Uric acid],0%,0,
Cc1nc2[nH]c(=O)[nH]c(=O)c2[nH]1 [8-Methyl Xanthine],0%,0,
Nc1ccc(S(=O)(=O)c2ccc(N)cc2)cc1 [dapsone],,,adverse reactions ([4]; fast acetylators): 17%; adverse reactions ([4]; slow acetylators): 46%
"CC(=O)Nc1c(N)n(C)c(=O)n(C)c1=O [5-Acetamino-6-amino-1,3-dimethyluracil]",0%,0,
